Activity calls are given as the source filed them. The calls are words filed in the database; no cut-off is given here.
What was measured:
L6 [1] = experiment: Induction of glucose uptake in rat L6 cells expressing GLUT4 myc epitopes at 10 uM incubated for 24 hrs by scintillation counting method relative to control; assay type: functional
[2] = Antioxidant activity assessed as hydroxyl radical scavenging activity at 100 uM incubated for 90 mins by spectrophotometric analysis; assay type: functional
Mus musculus [3] = organism: Mus musculus; experiment: Antidiabetic activity in db/db mouse assessed as increase in GLUT4 level incubated for 15 mins by Western blot analysis; assay type: functional, organism-based
Mus musculus [4] = experiment: Antidiabetic activity in db/db mouse assessed as decrease in rise of postprandial hyperglycemia at 30 mg/kg measured after 10 days post glucose challenge by oral glucose tolerance test relative to control; assay type: functional; design: scale not given: the % may be the effect or the level left; conditions: time 10 day
Syrian golden hamster [5] = experiment: Antidyslipidemic activity in Triton-induced hyperlipidemic Syrian golden hamster model assessed as decrease in total cholesterol level at 50 mg/kg measured after 18 hrs; assay type: functional, Mesocricetus auratus; design: scale not given: the % may be the effect or the level left
Syrian golden hamster [6] = experiment: Antidyslipidemic activity in Triton-induced hyperlipidemic Syrian golden hamster model assessed as increase in post-heparin lipolytic activity at 50 mg/kg measured after 18 hrs; assay type: functional, Mesocricetus auratus
Mus musculus [7] = experiment: Antidiabetic activity in db/db mouse assessed as decrease in postprandial blood glucose at 30 mg/kg measured after 9 days; assay type: functional, organism-based; conditions: time 9.0 day
L6 [8] = experiment: Induction of GLUT4myc translocation to rat L6 cells surface measured after 16 hrs by colorimetric assay; assay type: functional, cell-based; conditions: dose 5-25 µM
Mus musculus [9] = experiment: Antidiabetic activity in db/db mouse assessed as decrease in fasting blood glucose level at 30 mg/kg administered for 15 consecutive days by oral glucose tolerance test relative to control; assay type: functional; design: scale not given: the % may be the effect or the level left; conditions: time 15 day
Rattus norvegicus [10] = experiment: Antidiabetic activity in streptozotocin induced hyperglycemic Wistar rat model assessed as improvement in blood glucose level at 100 mg/kg,po measured upto 5 hrs relative to control; assay type: functional
Mus musculus [11] = organism: Mus musculus; experiment: Antidyslipidemic activity in db/db mouse assessed as decrease in serum triglyceride level measured after 15 days relative to control; assay type: functional; design: scale not given: the % may be the effect or the level left; conditions: time 15 day
L6 [12] = experiment: Induction of insulin stimulated glucose uptake in rat L6 cells expressing GLUT4 myc epitopes at 10 uM preincubated for 16 hrs followed by 3 hrs incubation under serum deprived medium prior to insulin stimulation for 20 mins; assay type: functional, cell-based; conditions: time 1160.0 min
Mus musculus [13] = experiment: Antidiabetic activity in db/db mouse assessed as decrease in HOMA index at 30 mg/kg administered for 15 consecutive days by oral glucose tolerance test relative to control; assay type: functional; design: scale not given: the % may be the effect or the level left; conditions: time 15 day
[14] = Antioxidant activity assessed as superoxide anion radical scavenging activity at 100 uM incubated for 30 mins by spectrophotometric analysis; assay type: functional
Mus musculus [15] = experiment: Antidiabetic activity in db/db mouse assessed as decrease in serum insulin levels at 30 mg/kg administered for 15 consecutive days by oral glucose tolerance test relative to control; assay type: functional; design: scale not given: the % may be the effect or the level left; conditions: time 15 day
Mus musculus [16] = organism: Mus musculus; experiment: Antidyslipidemic activity in db/db mouse assessed as increase in serum HDL-cholesterol level measured after 15 days relative to control; assay type: functional; conditions: time 15 day
Syrian golden hamster [17] = experiment: Antidyslipidemic activity in Triton-induced hyperlipidemic Syrian golden hamster model assessed as increase in lecithin-cholesterol acyltransferase level at 50 mg/kg measured after 18 hrs; assay type: functional, Mesocricetus auratus
L6 [18] = experiment: Induction of GLUT4myc translocation to rat L6 cells surface at 5 to 25 uM incubated for 20 mins followed by insulin stimulation by colorimetric assay; assay type: functional, cell-based; conditions: dose 5-25 µM
Mus musculus [19] = organism: Mus musculus; experiment: Antidyslipidemic activity in db/db mouse assessed as decrease in serum cholesterol level measured after 15 days relative to control; assay type: functional; design: scale not given: the % may be the effect or the level left; conditions: time 15 day
Mus musculus [20] = experiment: Antidiabetic activity in db/db mouse assessed as decrease in rise of postprandial hyperglycemia at 30 mg/kg measured after 15 days post glucose challenge by oral glucose tolerance test relative to control; assay type: functional; design: scale not given: the % may be the effect or the level left; conditions: time 15 day
L6 [21] = experiment: Induction of glucose uptake in rat L6 cells expressing GLUT4 myc epitopes at 5 uM incubated for 24 hrs by scintillation counting method relative to control; assay type: functional
L6 [22] = experiment: Cytotoxicity against rat L6 cells assessed as reduction in cell viability at 5 to 100 uM incubated overnight by MTT assay; assay type: toxicity, cell-based; conditions: l6, 100 µM, dose 5-100 µM
Mus musculus [23] = organism: Mus musculus; experiment: Antidiabetic activity in db/db mouse assessed as increase in Akt phosphorylation incubated for 15 mins by Western blot analysis; assay type: functional, organism-based
Syrian golden hamster [24] = experiment: Antidyslipidemic activity in Triton-induced hyperlipidemic Syrian golden hamster model assessed as decrease in triglyceride level at 50 mg/kg measured after 18 hrs; assay type: functional, Mesocricetus auratus; design: scale not given: the % may be the effect or the level left
Mus musculus [25] = organism: Mus musculus; experiment: Antidyslipidemic activity in db/db mouse assessed as effect on body weight measured after 9 days; assay type: functional, organism-based; conditions: time 9.0 day
Rattus norvegicus [26] = experiment: Antidiabetic activity in streptozotocin induced hyperglycemic Wistar rat model assessed as improvement in blood glucose level at 100 mg/kg,po measured upto 24 hrs relative to control; assay type: functional
Syrian golden hamster [27] = experiment: Antidyslipidemic activity in Triton-induced hyperlipidemic Syrian golden hamster model assessed as decrease in PL level at 50 mg/kg measured after 18 hrs; assay type: functional, Mesocricetus auratus; design: scale not given: the % may be the effect or the level left

**Q.** What does the source list for `CC1(C)C=Cc2ccc(O)c(C(=O)/C=C/c3ccc4oc(C(=O)c5ccccc5)cc4c3)c2O1`?
**A.** Activity (L6 [1]): 249%; Activity [2]: 16; Activity (Mus musculus [3]): Active; Activity (Mus musculus [4]): 18.2%; Activity (Syrian golden hamster [5]): 21%; Activity (Syrian golden hamster [6]): 24%; Activity (Mus musculus [7]): Active; Activity (L6 [8]): Dose-Dependent Effect; Activity (Mus musculus [9]): 25%; Activity (Rattus norvegicus [10]): 22.8%; Activity (Mus musculus [11]): 26.5%; Activity (L6 [12]): inactive; Activity (Mus musculus [13]): 39.8%; Activity [14]: 18; Activity (Mus musculus [15]): 23.8%; Activity (Mus musculus [16]): 45.2%; Activity (Syrian golden hamster [17]): 18%; Activity (L6 [18]): Active; Activity (Mus musculus [19]): 21%; Activity (Mus musculus [20]): 29.1%; Activity (L6 [21]): 82%; Activity (L6 [22]): Non-Toxic; Activity (Mus musculus [23]): Active; Activity (Syrian golden hamster [24]): 18%; Activity (Mus musculus [25]): Active; Activity (Rattus norvegicus [26]): 25.1%; Activity (Syrian golden hamster [27]): 24%
